Measurements taken from paper PMC8464850, “Sulfonium Ligands of the α7 nAChR” (Molecules, 2021).
Structures can show the parent of a compound that is named as a salt.

Experiments:
Type in all cases: cell-based
α7 nAChR [1] = biological target: T1, α7 nAChR (Homo sapiens, UniProt P36544); assay: α7 responses on co-application with the type II PAM TQS (silent agonism); details: for α7 functional classification (silent agonist / inactive): inactive alone, active with a PAM = silent agonist
T1 construct: expressed in transfected cells; host or cells: Xenopus laevis oocytes (injected RNA)
T1 sequence (P36544 23-502): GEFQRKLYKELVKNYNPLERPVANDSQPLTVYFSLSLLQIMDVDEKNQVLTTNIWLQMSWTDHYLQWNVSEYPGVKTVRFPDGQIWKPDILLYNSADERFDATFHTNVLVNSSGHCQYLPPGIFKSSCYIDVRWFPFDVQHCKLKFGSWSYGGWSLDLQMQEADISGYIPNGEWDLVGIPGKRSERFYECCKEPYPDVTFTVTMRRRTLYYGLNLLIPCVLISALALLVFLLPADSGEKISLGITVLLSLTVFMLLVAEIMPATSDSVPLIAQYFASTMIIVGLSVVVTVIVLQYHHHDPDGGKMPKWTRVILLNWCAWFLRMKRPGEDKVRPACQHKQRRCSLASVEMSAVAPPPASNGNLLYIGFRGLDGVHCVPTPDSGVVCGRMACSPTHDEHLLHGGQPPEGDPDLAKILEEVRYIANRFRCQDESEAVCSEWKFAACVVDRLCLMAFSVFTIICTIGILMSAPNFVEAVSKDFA
Method: (§1) Compounds were co-applied at a concentration of 100 µM with 30 µM racemic TQS (Figure 3A). All compounds except S4, S5, and S8 gave large responses when co-applied with TQS, consistent with silent agonism of α7 (see Table S1 for ANOVA). Active compounds were also evaluated across a range of concentrations with the alternative PAM, PNU-120596 (Figure 3B). The curve-fit values for Imax (Table 1) should be taken only as approximation of the relative efficacies of the compounds, due to the large variability frequently observed in PNU-120596-potentiated responses, as evidenced by the large SEMs of the responses obtained with high concentrations.
(§2) Figure 3 Responses of α7 nAChR to sulfonium compounds coapplied with PAMs. (A) Potentiation of α7 responses with 30 µM racemic TQS. Shown are the average net-charge responses of seven or eight oocytes ± SEM. (B) Concentration-response studies of peak currents generated by compounds that gave positive responses with TQS, coapplied with 10 µM PNU-120596. Each point represents the average (±SEM) of at least four oocytes.
The human nAChR clones were obtained from Jon Lindstrom (University of Pennsylvania, Philadelphia, PA, USA). Mouse muscle subunit clones were obtained from Jim Boulter (Salk Institute, La Jolla, CA, USA) and Paul Gardner (Dartmouth, Hanover, NH, USA). The human resistance-to-cholinesterase 3 (RIC3) clone was obtained from Millet Treinin (Hebrew University, Jerusalem, Israel) and co-injected with α7 to improve the level and speed of α7 receptor expression without affecting the pharmacological properties of the receptors. Subsequent to linearization and purification of the plasmid DNAs, RNAs were prepared using the mMessage mMachine in vitro RNA transcription kit (Ambion, Austin, TX, USA).
(§3) Experiments were conducted using OpusXpress 6000A (Molecular Devices, Union City, CA, USA). Both the voltage and current electrodes were filled with 3 M KCl. Oocytes were voltage-clamped at −60 mV at room temperature (24 °C). The oocytes were bath-perfused with Ringer’s solution (115 mM NaCl, 2.5 mM KCl, 1.8 mM CaCl2, 10 mM HEPES, and 1 μM atropine, pH 7.2) at 2 mL/min for α7 receptors, or 4 mL/min for heteromeric nAChR. To evaluate the effects of experimental compounds, responses were compared to control ACh-evoked responses, defined as the average of two initial applications of ACh made before test applications. ACh control concentrations were 60 µM for α7 receptors; 100 µM for α4(3)β2(2) and α3β4 receptors; 30 µM for α4β2α6β2β3 and muscle-type (αβ1εδ) receptors; and 10 µM for α4(3)β2(2) and α4(2)β2(2)α5 receptors.
(§4) Solutions were applied from 96-well plates via disposable tips. Drug applications were 12 s in duration, followed by 181 s washout periods for α7 receptors, or 6 s in duration followed by 301 s washout periods for heteromeric nAChR. The responses were calculated as both peak current amplitudes and net charge, as previously described. Data were collected at 50 Hz, filtered at 20 Hz for α7 receptors or filtered at 5 Hz for heteromeric nAChR, and analyzed by Clampfit (Molecular Devices, San Jose, CA, USA) and Excel (Microsoft, Redmond, WA, USA). Data were expressed as means ± SEM from at least four oocytes for each experiment and plotted with Kaleidagraph 4.5.2 (Abelbeck Software, Reading, PA, USA). Multi-cell averages were calculated for comparisons of complex responses. Averages of the normalized data were calculated for each of the 10,322 points in each of the 206.44 s traces (acquired at 50 Hz), as well as the standard errors for those averages.

α7 nAChR [2] = biological target: T1, α7 nAChR; assay: α7 concentration-response on co-application with 10 µM PNU-120596; details: peak currents, co-applied with 10 µM PNU-120596, Hill fit; for IMax (PNU Activation): approximation only
Method: as §1, §2, §3, §4

α7 nAChR [3] = biological target: T1, α7 nAChR; assay: Inhibition of α7 ACh-evoked responses; details: for effect on 60 µM ACh response at 1 mM: compound 1 mM co-applied with 60 µM ACh
Method: Figure 4 Effects sulfonium compounds on α7 ACh-evoked net-charge responses. (A) Effects of the sulfonium compounds at 100 µM co-applied with 60 µM relative to responses to 60 µM ACh applied alone. Data are the averages (±SEM) from seven or eight cells under each condition. (B) Effects of select sulfonium compounds at 1 mM co-applied with 60 µM relative to responses to 60 µM ACh applied alone. Data are the averages (±SEM) from seven or eight cells under each condition. Statistical significance was determined by pairwise t-test with p values corrected for multiple comparisons; * p < 0.05, ** p < 0.001.
The sulfonium compounds that were active with TQS but produced little inhibition of ACh response at a concentration of 100 µM were tested as inhibitors of ACh response at a concentration of 1 mM (Figure 4B).
We tested S8 across a range of concentrations for its ability to inhibit 60 µM ACh responses (Figure 5A). Note that we use 60 µM as an ACh control because this concentration gives nearly maximal (93%) net-charge responses, with the time course of the responses roughly following the speed of solution exchange. […] We tested whether inhibition of α7 responses by S8 was surmountable by increasing ACh concentration, consistent with a competitive mechanism of inhibition. However, since α7 responses to concentrations of ACh greater than 60 µM occur more rapidly than solution exchange in the chamber, we first pre-applied 5 µM S8 prior to the co-application of 5 µM S8 with either 60 µM or 1 mM ACh (Figure 5B). The 60 µM net-charge responses were reduced to 28 ± 2% of controls (n = 8) and 60 µM peak currents to 21 ± 3 % controls. The 1 mM net-charge responses were reduced to 56 ± 6 % of those obtained without S8 co-application, although the S8 co-application increased the peak-current amplitudes compared to 60 µM controls from 1.78 ± 0.15 to 3.72 ± 0.81 (n = 8).
Figure 5 Inhibition of α7 ACh-evoked responses by S8. (A) Concentration-response studies of α7 net-charge responses to 60 µM ACh co-applied with increasing concentrations of S8. To confirm the stability of the ACh responses, applications of ACh plus S8 were alternated with applications of ACh alone. Data are the averages of eight cells (±SEM). See text for curve-fit values. (B) Effects of 5 µM S8 on responses to either 60 µM or 1 mM ACh. The traces shown across the top are the averaged raw data from seven cells, each normalized to the peak current of the first ACh control response shown. In order to assure that the S8 was present at 5 µM throughout the ACh-evoked responses, a 30 s pre-application was made of 5 µM S8 alone. The lower traces show averaged responses to 60 µM or 1 mM ACh alone or with the 5 µM S8 pre- and co-application. The details of the data are described in Methods.
as §3
Solutions were applied from 96-well plates via disposable tips. Drug applications were 12 s in duration, followed by 181 s washout periods for α7 receptors, or 6 s in duration followed by 301 s washout periods for heteromeric nAChR. […]

In the case of `C[S+](C)C.[I-]` [Compound S1, trimethylsulfonium iodide], the “response when co-applied with TQS” value (α7 nAChR [1]; 100 µM compound with 30 µM racemic TQS, net charge) is reported as “produced potentiated α7 currents” and the “IMax (PNU Activation)” value (α7 nAChR [2]) is reported as 9.1 ± 0.05.

For `C[S+](C)c1ccc(O)cc1` [Compound S9, (4-hydroxyphenyl)dimethylsulfonium methyl sulfate], the “relative activity as α7 silent agonist / desensitizer (rank order)” value (α7 nAChR [1]; 100 µM with 30 µM TQS, Figure 3A) was “most desensitizing”, the “α7 functional classification (silent agonist / inactive)” value (α7 nAChR [1]) was “silent agonist activity” and the “IMax (PNU Activation)” value (α7 nAChR [2]) was 3.98 ± 0.14. For the same compound, the “effect on 60 µM ACh response at 1 mM” value (α7 nAChR [3]) was “significant inhibition” and the “inhibition of responses to 60 µM ACh” value (α7 nAChR [3]; compound co-applied at 100 µM, net charge) was “no inhibition”.

`C[S+](C)c1cc([N+](=O)[O-])ccc1O.[Br-]` [Compound S10, (2-hydroxy-5-nitrophenyl)dimethylsulfonium bromide] was tested, and the “α7 functional classification (silent agonist / inactive)” value (α7 nAChR [1]) was “silent agonist activity”, the “IMax (PNU Activation)” value (α7 nAChR [2]) was 4.6 ± 0.1 and the EC50 (α7 nAChR [2]; read-out: EC50 (PNU Activation)) was 45.5 ± 50.6 µM. For the same compound, the “effect on 60 µM ACh response at 1 mM” value (α7 nAChR [3]) was “increased the amplitude of the ACh-evoked responses”.
